According to BindingDB's records for doi:10.1016/S0960-894X(01)81215-4 (1993):
Where a SMILES comes first, the peptide text is derived from it. [ ]: non-standard residue; d: D form.

Assay: Displacement of [125I]-ET-1 from Endothelin A receptor of rabbit renal artery vascular smooth muscle cells

IC50: 650 nM
Structure (SMILES): CC[C@H](C)[C@H](NC(=O)[C@H](CC(=O)O)NC(=O)[C@H](CCC(=O)O)NC(=O)[C@@H](Cc1ccccc1)NC(C)=O)C(=O)N[C@H](C(=O)N[C@@H](Cc1c[nH]c2ccccc12)C(=O)O)[C@@H](C)CC [(S)-4-((R)-2-Acetylamino-3-phenyl-propionylamino)-4-((S)-2-carboxy-1-{(S)-1-[(S)-(S)-1-((S)-1-carboxy-2-(S)-1H-indol-3-yl-ethylcarbamoyl)-2-methyl-butylcarbamoyl]-2-methyl-butylcarbamoyl}-ethylcarbamoyl)-butyric acid] (Ac-[dF]EDIIW-OH)
